Data as given in PubChem BioAssay AID248 (DTP/NCI, 2004).
“And” between values parts separate entries of the source, which are not always exact repeats. Equal values may be shown once. Inconclusive results and toxic doses are left out. Rule as the data show it: active = T/C of 150% or more; inactive = T/C below 125%.

Tested on: L1210 leukemia ip in BDF1 mice, survival T/C
Test: NCI In Vivo Anticancer Drug Screen. Data for tumor model L1210 Leukemia (intraperitoneal) in B6D2F1 (BDF1) mice
Details: endpoint: mean survival time, higher = longer survival
Summary of the method: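 Tumor cells were implanted, animals were treated, and survival was followed. The result divides the treated measurement by the vehicle-control measurement.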

Measured: T/C

COc1cccc(C(c2ccccc2)C(CC(=O)O)CC(=O)O)c1 (centres undefined)
inactive: dose: 75.0 mg/kg/injection, schedule: Q04DX002 (ip), vehicle: Klucel (hydroxypropylcellulose) (HPC) 101 % of control | dose: 150.0 mg/kg/injection, schedule: Q04DX002 (ip), vehicle: Klucel (hydroxypropylcellulose) (HPC) 108 % of control | dose: 300.0 mg/kg/injection, schedule: Q04DX002 (ip), vehicle: Klucel (hydroxypropylcellulose) (HPC) 97 % of control

Cc1c2c(ccc3ccccc32)c[n+]2ccccc12
inactive: dose: 1.1 mg/kg/injection, schedule: Q01DX009 (ip), vehicle: saline 97 % of control | dose: 1.1 mg/kg/injection, schedule: Q03HX024 (ip), vehicle: saline 98 % of control | dose: 1.7 mg/kg/injection, schedule: Q01DX009 (ip), vehicle: saline 105 % of control | dose: 1.7 mg/kg/injection, schedule: Q03HX024 (ip), vehicle: saline 100 % of control | dose: 1.8 mg/kg/injection, schedule: Q01DX Z (ip), vehicle: methylcellulose (MC) 116 % of control | dose: 2.0 mg/kg/injection, schedule: Q01DX009 (ip), vehicle: saline 96 % of control | dose: 2.5 mg/kg/injection, schedule: Q01DX Z (ip), vehicle: carboxymethylcellulose (CMC) 105 % of control | dose: 2.6 mg/kg/injection, schedule: Q01DX009 (ip), vehicle: saline 102 % of control | dose: 2.6 mg/kg/injection, schedule: Q03HX024 (ip), vehicle: saline 108 % of control | dose: 2.7 mg/kg/injection, schedule: Q01DX Z (ip), vehicle: methylcellulose (MC) 105 % of control | dose: 3.0 mg/kg/injection, schedule: Q01DX009 (ip), vehicle: saline 108 % of control | dose: 4.0 mg/kg/injection, schedule: Q01DX009 (ip), vehicle: saline 103 % of control | dose: 4.0 mg/kg/injection, schedule: Q01DX Z (ip), vehicle: methylcellulose (MC) 107 % of control | dose: 4.0 mg/kg/injection, schedule: Q03HX024 (ip), vehicle: saline 98 % of control | dose: 4.4 mg/kg/injection, schedule: Q01DX Z (ip), vehicle: methylcellulose (MC) 119 % of control | dose: 4.5 mg/kg/injection, schedule: Q01DX009 (ip), vehicle: saline 108 % of control | dose: 5.0 mg/kg/injection, schedule: Q01DX001 (ip), vehicle: carboxymethylcellulose (CMC) 100 % of control | dose: 5.0 mg/kg/injection, schedule: Q01DX Z (ip), vehicle: carboxymethylcellulose (CMC) 119 % of control | dose: 6.0 mg/kg/injection, schedule: Q01DX009 (ip), vehicle: saline 105 % of control and 107 % of control | dose: 6.0 mg/kg/injection, schedule: Q03HX024 (ip), vehicle: saline 104 % of control and 106 % of control | dose: 6.25 mg/kg/injection, schedule: Q04DX003 (ip), vehicle: saline 104 % of control | dose: 6.6 mg/kg/injection, schedule: Q01DX Z (ip), vehicle: methylcellulose (MC) 121 % of control | dose: 9.0 mg/kg/injection, schedule: Q01DX009 (ip), vehicle: saline 107 % of control | dose: 10.0 mg/kg/injection, schedule: Q01DX001 (ip), vehicle: carboxymethylcellulose (CMC) 107 % of control | dose: 11.0 mg/kg/injection, schedule: Q01DX001 (ip), vehicle: saline 109 % of control | dose: 11.0 mg/kg/injection, schedule: Q04DX003 (ip), vehicle: saline 107 % of control | dose: 12.5 mg/kg/injection, schedule: Q04DX003 (ip), vehicle: saline 108 % of control | dose: 13.0 mg/kg/injection, schedule: Q01DX009 (ip), vehicle: saline 111 % of control | dose: 15.0 mg/kg/injection, schedule: Q01DX Z (ip), vehicle: methylcellulose (MC) 97 % of control | dose: 17.0 mg/kg/injection, schedule: Q01DX001 (ip), vehicle: saline 110 % of control | dose: 17.0 mg/kg/injection, schedule: Q04DX003 (ip), vehicle: saline 105 % of control | dose: 20.0 mg/kg/injection, schedule: Q01DX001 (ip), vehicle: carboxymethylcellulose (CMC) 105 % of control | dose: 20.0 mg/kg/injection, schedule: Q01DX009 (ip), vehicle: saline 123 % of control | dose: 26.0 mg/kg/injection, schedule: Q01DX001 (ip), vehicle: saline 107 % of control | dose: 26.0 mg/kg/injection, schedule: Q04DX003 (ip), vehicle: saline 112 % of control

On1ccc(N2CCOCC2)cc1=NC1CCCCC1
inactive: dose: 5.0 mg/kg/injection, schedule: Q01DX001 (ip), vehicle: saline 95 % of control | dose: 10.0 mg/kg/injection, schedule: Q01DX001 (ip), vehicle: saline 97 % of control | dose: 20.0 mg/kg/injection, schedule: Q01DX001 (ip), vehicle: saline 90 % of control | dose: 40.0 mg/kg/injection, schedule: Q01DX001 (ip), vehicle: saline 98 % of control | dose: 80.0 mg/kg/injection, schedule: Q01DX001 (ip), vehicle: saline 101 % of control | dose: 100.0 mg/kg/injection, schedule: Q01DX001 (ip), vehicle: saline 103 % of control
